These results are taken from patent US8604207B2, “Nitrogenous heterocyclic derivative and medicine containing the same as an active ingredient” (Ono Pharmaceutical Co., Ltd., priority 2004, dated 2013).

Where a name gives a salt, the structure may show the parent alone.

Data set [1] in a line: Stability test in liver microsome of monkey. The note with it: liver microsome of monkey 1 mg/mL, test compound 5 μmol/L, 30 minutes at 37° C.
Data set [2] concerns human cultured PBMC. Briefly: Cell migration test (in vitro, human MIP-1β-induced migration of human cultured PBMC). Type of data set: cell-based. As to conditions: human MIP-1β in lower well, incubated 1.5 hours, average value (n=3), read-out: IC50 value, inhibitory activity against human MIP-1β-induced cell migration of human cultured PBMC. The method, then: Preparation of PBMC (Peripheral Blood Mononuclear Cell)
Human venous blood (50 mL) collected by using syringe with heparin sodium (final concentration: 10 U/mL, heparin sodium injection 1000 U/mL, Shimizu Pharmaceutical Co., Ltd.) was stored into 50 mL of conical tube made by polypropylene. To a Lymphoprep tube (HYCOMED PHARMA, Cat. No 1019818), 16.5 mL of DPBS (−) (GIBCO, Cat No. 14190-136) and a blood sample were added, jiggled several times, then centrifuged at 3000 rpm for 10 minutes at room temperature. […]
50 μL of 5×10^5 cells of the human PBMC suspension (culture medium) and 50 μL of the solution of the test compound (0-2 μmol/L: double concentration of a final concentration) were added to an upper well of transwell (coster), and 300 μL of 60 nmol/L of the human MIP-1β (Pepro tech, Cat. No. 300-09) and 300 μL of a double concentration of the solution of the test compound were added to a lower well. […] 100 μL of the solution was transferred to white 96 well plate for fluorescence from lower well by pipetting, an amount of cells was measured by using Celltiter Glo (Promega) (a measurement of ATP), Cell migration inhibition ratio was calculated by the following calculating formula. The value of IC50 was calculated from cell migration inhibition ratio of each concentration. […]

On to `CC(=O)Nc1cc(NC(=O)N(c2ccccc2)C2CCN(Cc3ccc(Oc4ccc(NS(C)(=O)=O)cc4)nc3)CC2)ccc1F` [Example 7(83), N-[2-fluoro-5-({[{1-[(6-{4-[(methylsulfonyl)amino]phenoxy}-3-pyridinyl)methyl]-4-piperidinyl}(phenyl)amino]carbonyl}amino)phenyl]acetamide hydrochloride (or dihydrochloride)], for which the “residual ratio of the unmetabolite” value in data set [1] was determined as 88%.
Regarding `CS(=O)(=O)Nc1ccc(Oc2ccc(CN3CCC(N(C(=O)Nc4ccc(F)cc4)c4ccsc4)CC3)cn2)cc1` [Example 7(29), N-(4-{[5-({4-[{[(4-fluorophenyl)amino]carbonyl}(3-thienyl)amino]-1-piperidinyl}methyl)-2-pyridinyl]oxy}phenyl)methanesulfonamide hydrochloride (or dihydrochloride)], the IC50 in data set [2] came out at 1.2 nM.
